The values below come from patent publication US4031094A, “N-meta-trifluoromethylpiperazines” (Synthelabo, priority 1972, dated 1977).

One data set deals with rat. In words: anorexigenic effects in the rat trained to satisfy its alimentary needs in a period of 5 hours each 24 hours. Format: in vivo. The following applies: oral, read-out: Anorexia ED 50. On the procedure: 1. a study of the anorexigenic effects in the rat trained to satisfy its alimentary needs in a period of 5 hours each 24 hours;
(§1) In every case, the compounds under test were administered orally. The results obtained are given in the table below which also gives the LD 50's (and their 95% confidence limits) of the compounds studied determined intravenously and orally.

The next data set relates to mice. Nature of the data set: motor activity in mice in the hour following administration. Format: in vivo. The following applies: 5 mg/kg, oral. Here is the method: 2. the motor activity in mice in the hour following administration of the compound under test;
as §1

Data set [1] in a line: electric "battle test" (Tedeschi & al). It is filed as in vivo. As to conditions: oral; read-out: Electric Battle Test ED 50. Here is the method: 3. the electric "battle test" (Tedeschi & al, J. Pharmacol., 1959, 125, pages […]); and
as §1

The nature of the next data set: LD 50 intravenously. The following applies: in vivo; intravenous; 95% confidence limits in parentheses. On the procedure: as §1
A short description of a further data set: LD 50 orally. As to conditions: in vivo; oral; 95% confidence limits in parentheses. On the procedure:
as §1

A short description of data set [2]: overall comparison of therapeutic index, activity and toxicity. It is filed as in vivo. As to conditions: compared with compounds II and III. On the procedure: The compounds of formula IA and their salts have interesting pharmacological properties which make them of therapeutic interest.
as §1

For data set [3] the following is noted: known properties of comparison compounds; cited from earlier work.

Where a name gives a salt, the structure may show the parent alone.

Consider `Cl.N#CCCN1CCN(c2cccc(SC(F)(F)F)c2)CC1` [IA, N-(β-cyano-ethyl)-N'-(m-trifluoromethylthiophenyl)-piperazine hydrochloride], for which the ED50 in the data set on rat amounted to 11 mg/kg. Moreover, in the data set on mice, the “Motor Activity” value was found to be 0%. Further, in data set [1], the ED50 stood at 8 mg/kg. For the same compound, in “LD 50 intravenously”, the LD50 (in general, the dose expected to kill half of the subjects tested) came out at 180 mg/kg. The LD50 in “LD 50 orally” was 335 mg/kg. Besides, in data set [2], the “activity, overall” value was “higher activity”; the therapeutic index result was “better therapeutic index than compounds II and III”; the toxicity result is recorded as “lower toxicity”. In “solubility”, the solubility in water result is listed as “soluble in water”.
For the compound `COC(=O)CCN1CCN(c2cccc(SC(F)(F)F)c2)CC1` [Example 5, N-(β-methoxycarbonyl-ethyl)-N'-(m-trifluoromethylthiophenyl)-piperazine hydrochloride], the solubility in water entry in the data set “solubility” was “soluble in water”.
As for `FC(F)(F)Sc1cccc(N2CCNCC2)c1` [III, N-(m-trifluoromethylthiophenyl)-piperazine], the ED50 (in the data set on rat; in data set [1]) was 15 mg/kg throughout. Further, the “Motor Activity” value with mice amounted to 0%. Moreover, the results for the LD50 in the data set “LD 50 intravenously” and in “LD 50 orally” were 90 mg/kg and 210 mg/kg, respectively. In addition, the known pharmacological properties result in data set [3] is “known to possess anorexigenic properties”. Besides, the “solubility in organic solvents” value in the data set “solubility” (most usual organic solvents) was “soluble in water and in most usual organic solvents”. Besides, in “solubility”, the solubility in water result is listed as “soluble in water”.
Turning to `FC(F)(F)c1cccc(N2CCNCC2)c1` [Compound II, N-(m-trifluoromethylphenyl)-piperazine, reference compound], the ED50 in the data set with rat came to 25 mg/kg; in data set [1], 15 mg/kg. The LD50 is 80 mg/kg in “LD 50 intravenously” and 200 mg/kg in the data set “LD 50 orally”. Moreover, in data set [3], the known pharmacological properties result was “known to possess anorexigenic and anxiolytic properties”.
